Converted amounts (≈) assume the structure as drawn. Where two headings read alike, the source gives them in different places.
Columns and labels:
A. baumannii NCTC 13423 = assay: Antibacterial activity, pre-exposure; assay type: cell-based, Acinetobacter baumannii; settings: for Average inhibition %, biofilms viability / Average inhibition %, planktonic cells viability / inhibition at 10 µM / inhibition at 15 µM / inhibition at 25 µM / inhibition at 50 µM: A. baumannii NCTC 13423, pre-exposure, ± SD; for inhibition at 10 µM / inhibition at 15 µM / inhibition at 25 µM / inhibition at 50 µM: Acinetobacter baumannii, NCTC13423
Procedure, shortened: (§1)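 Bacteria and compound were co-incubated from the start for 18 h at 37 °C, 220 rpm. Planktonic cells scored by turbidity plus resazurin reduction; washed biofilms scored by 20 μM resazurin (30, 60, 90 min for S. aureus, A. baumannii, P. aeruginosa) and ethanol-fixed crystal violet staining.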

S. aureus ATCC 25923 [1] = assay: Antibacterial activity, post-exposure on preformed 18-h-old biofilms; assay type: cell-based, Staphylococcus aureus; settings: ± SD; for inhibition at 25 µM / inhibition at 50 µM / inhibition at 100 µM / inhibition at 200 µM: Staphylococcus aureus; for inhibition at 25 µM: ATCC25923, 25 µM; for inhibition at 50 µM: ATCC25923, 50 µM; for inhibition at 100 µM: ATCC25923, 100 µM; for inhibition at 200 µM: ATCC25923, 200 µM
Procedure, shortened: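 Compounds were applied to preformed 18-h biofilms after medium change and left 24 h. Read-outs: planktonic OD plus resazurin fluorescence (20 μM), biofilm metabolic activity by resazurin 30 min at 37 °C, then biomass by crystal violet absorbance at 595 nm after ethanol fixation.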

S. aureus ATCC 25923 [2] = assay: Antibacterial activity, pre-exposure (planktonic cells and biofilm formation); assay type: cell-based, Staphylococcus aureus; settings: Staphylococcus aureus, ATCC25923; for inhibition at 5 µM / inhibition at 10 µM / inhibition at 15 µM / inhibition at 25 µM: pre-exposure, ± SD
Procedure, shortened: as §1

[3] = read-out: Average inhibition %, biofilms biomass
[4] = read-out: Average inhibition %, planktonic cells turbidity

Structure (SMILES): CCCCCCCCc1ccc2cc(CC(N)(CO)CO)ccc2c1 [Compound 79, 2-Amino-2-[(6-octylnaphthalen-2-yl)methyl]propane-1,3-diol]
- Average inhibition %, biofilms viability (A. baumannii NCTC 13423; 10 µM): 0.3 ± 0.6%
- Average inhibition %, planktonic cells viability (A. baumannii NCTC 13423; 10 µM): 4.7 ± 4.7%
- Average inhibition %, biofilms viability (A. baumannii NCTC 13423; 15 µM): 0.7 ± 0.6%
- Average inhibition %, planktonic cells viability (A. baumannii NCTC 13423; 15 µM): 4.2 ± 4.8%
- Average inhibition %, biofilms viability (A. baumannii NCTC 13423; 25 µM): 1.2 ± 1.5%
- Average inhibition %, planktonic cells viability (A. baumannii NCTC 13423; 25 µM): 0 ± 0%
- Average inhibition %, biofilms viability (A. baumannii NCTC 13423; 50 µM): 6.5 ± 6.4%
- Average inhibition %, planktonic cells viability (A. baumannii NCTC 13423; 50 µM): 0 ± 0%
- inhibition at 10 µM (A. baumannii NCTC 13423; 10 µM, read-out: Average inhibition %, biofilms biomass): 1.7 ± 3%
- inhibition at 10 µM (A. baumannii NCTC 13423; 10 µM, read-out: Average inhibition %, planktonic cells turbidity): 0%
- inhibition at 15 µM (A. baumannii NCTC 13423; 15 µM, read-out: Average inhibition %, biofilms biomass): 3.3 ± 5.7%
- inhibition at 15 µM (A. baumannii NCTC 13423; 15 µM, read-out: Average inhibition %, planktonic cells turbidity): 0%
- inhibition at 25 µM (A. baumannii NCTC 13423; 25 µM, read-out: Average inhibition %, biofilms biomass): 0.2 ± 0.4%
- inhibition at 25 µM (A. baumannii NCTC 13423; 25 µM, read-out: Average inhibition %, planktonic cells turbidity): 0%
- inhibition at 50 µM (A. baumannii NCTC 13423; 50 µM, read-out: Average inhibition %, biofilms biomass): 3.3 ± 5.1%
- inhibition at 50 µM (A. baumannii NCTC 13423; 50 µM, read-out: Average inhibition %, planktonic cells turbidity): 0.3 ± 0.6%
- MIC A. baumannii NCTC 13423 (A. baumannii NCTC 13423; pre-exposure, Inactive = no activity up to 50 μM, > = some inhibition but no MIC reached): Inactive
- Average inhibition %, biofilms viability (S. aureus ATCC 25923 [1]; 25 µM): 15.4 ± 3.3%
- Average inhibition %, planktonic cells viability (S. aureus ATCC 25923 [1]; 25 µM): 0.3 ± 0.6%
- Average inhibition %, biofilms viability (S. aureus ATCC 25923 [1]; 50 µM): 23.3 ± 4.3%
- Average inhibition %, planktonic cells viability (S. aureus ATCC 25923 [1]; 50 µM): 0 ± 0%
- Average inhibition %, biofilms viability (S. aureus ATCC 25923 [1]; 100 µM): 28.7 ± 6.3%
- Average inhibition %, planktonic cells viability (S. aureus ATCC 25923 [1]; 100 µM): 23.6 ± 15.5%
- Average inhibition %, biofilms viability (S. aureus ATCC 25923 [1]; 200 µM): 28.8 ± 6.5%
- Average inhibition %, planktonic cells viability (S. aureus ATCC 25923 [1]; 200 µM): 57 ± 23.8%
- inhibition at 25 µM (S. aureus ATCC 25923 [1]; [3]): 21.5 ± 4.7%
- inhibition at 25 µM (S. aureus ATCC 25923 [1]; [4]): 16.1 ± 25.9%
- inhibition at 50 µM (S. aureus ATCC 25923 [1]; [3]): 29.7 ± 10.3%
- inhibition at 50 µM (S. aureus ATCC 25923 [1]; [4]): 12.4 ± 8.3%
- inhibition at 100 µM (S. aureus ATCC 25923 [1]; [3]): 36.6 ± 6.4%
- inhibition at 100 µM (S. aureus ATCC 25923 [1]; [4]): 25.7 ± 16.3%
- inhibition at 200 µM (S. aureus ATCC 25923 [1]; [3]): 43.1 ± 20.9%
- inhibition at 200 µM (S. aureus ATCC 25923 [1]; [4]): 31.5 ± 11.1%
- MIC (S. aureus ATCC 25923 [2]; lowest concentration with no visible growth (>90% inhibition of turbidity and viability of planktonic cells), 18 h, read-out: MIC S. aureus ATCC 25923): 10 µM (≈ 3.44 µg/mL)
- inhibition at 5 µM (S. aureus ATCC 25923 [2]; [3]): 37.5 ± 32.5%
- inhibition at 5 µM (S. aureus ATCC 25923 [2]; [4]): 15.2 ± 17.2%
- inhibition at 10 µM (S. aureus ATCC 25923 [2]; [3]): 91.3 ± 5.8%
- inhibition at 10 µM (S. aureus ATCC 25923 [2]; [4]): 98.7 ± 0.9%
- inhibition at 15 µM (S. aureus ATCC 25923 [2]; [3]): 92.1 ± 4.9%
- inhibition at 15 µM (S. aureus ATCC 25923 [2]; [4]): 98.7 ± 1%
- inhibition at 25 µM (S. aureus ATCC 25923 [2]; [3]): 92.5 ± 4.2%
- inhibition at 25 µM (S. aureus ATCC 25923 [2]; [4]): 98.5 ± 1%
- MIC (S. aureus ATCC 25923 [2]; read-out: MIC (S. aureus)): 10 µM (≈ 3.44 µg/mL)

Reference: article PMC8296573, “Synthesis and Biological Evaluation of Fingolimod Derivatives as Antibacterial Agents” (ACS Omega, 2021)
